We go through six compounds from publication PMC5517562, “Design and discovery of novel monastrol-1,3,5-triazines as potent anti-breast cancer agent via attenuating Epidermal Growth Factor Receptor tyrosine kinase” (Scientific Reports, 2017).

In general, IC50 refers to the concentration needed to halve the response being measured. What is called inhibition is the share of the control response that was lost under treatment. What is called melting point is the temperature of the solid-liquid transition.

The test system of one series is WT EGFR. The arrangement: method as in PMID 22227214. Conditions: cited from earlier work.
Another series deals with mutant EGFRT790M/L858R. The arrangement: method as in PMID 22227214. Conditions: cited from earlier work.
The next series relates to A549. On the set-up: method as in PMID 22227214. Particulars: read-out: IC50 antiproliferative activity A549; cited from earlier work.
The test system of a further series is A431. On the set-up: method as in PMID 22227214. Conditions: read-out: IC50 antiproliferative activity A431; cited from earlier work.
For another series, the system named is NCIH1975. The arrangement: method as in PMID 22227214. Particulars: read-out: IC50 antiproliferative activity NCIH1975; cited from earlier work.
For another series, the system named is HeLa (cervical cancer). In words: MTT in vitro cytotoxicity assay, HeLa. The class given is cell-based, human. Particulars: Homo sapiens. How it is done:
(§1) The synthesized compounds were evaluated for in-vitro cytotoxic activity against various cell lines such as HeLa (cervical cancer), MCF-7 (breast cancer), HL-60 (Human promyelocytic leukemia), HepG2 (Hepatocellular carcinoma) and MCF 12A (normal epithelial cell) by the MTT assay method. […] The relationship between surviving fraction and drug concentration was plotted to obtain the survival curve of all the cancer cell lines HeLa, MCF-7, HL-60 and HepG2. The response parameter calculated was the IC50 values, which responds to the concentration required for 50% inhibition of cell viability. The in-vitro cytotoxic activity of the synthesized compounds is summarized Table 3.
(§2) The target compounds were subjected to in vitro cytotoxicity bioassay. In vitro cytotoxicity was determined using a standard MTT assay with protocol appropriate for the individual test system[29]–[31]. The four human cancer cell lines HeLa, MCF-7, HL-60, HepG2 and MCF-12A were cultured in the MEM medium supplemented with 10% FBS, 1% glutamine and […] gentamicin sulfate in a CO2 incubator in a humidified atmosphere of 5% CO2 and 95% air. The test compounds were prepared prior to the experiment by dissolving in 0.1% DMSO and diluted with medium. The cells were then exposed to different concentrations of drugs ([…]) in the volume of […]. Cells in the control wells received the same volume of medium containing 0.1% DMSO. After 24 h, the medium was removed and cell cultures were incubated with […] MTT reagent (1 mg/ml) for 5 h at 37 °C. The known number of cells ([…]) was incubated in a 5% CO2 incubator at 37 °C in the presence of different concentrations of test compounds. After 48 h of drug incubation, the MTT solution was added in each well and absorbance was recorded at 540 nm by an ELISA reader. The experiment was performed in triplicate. Cell survival was calculated as the percentage of MTT inhibition as % growth inhibition = 100 − (mean OD of individual test Group/Mean OD of each Control Group) × 100.

The test system of another series is MCF-7 (breast cancer). In words: MTT in vitro cytotoxicity assay, MCF-7. Particulars: Homo sapiens, MCF7. The class given is cell-based, human. Here is the method: as §1, §2
Series [1] concerns HL-60 (Human promyelocytic leukemia). As to the kind of experiment: MTT in vitro cytotoxicity assay, HL-60. Conditions: Homo sapiens. Format: cell-based. Here is the method:
as §1, §2

Series [2] deals with HepG2 (Hepatocellular carcinoma). As to the kind of experiment: MTT in vitro cytotoxicity assay, HepG2. Format: cell-based, human. Particulars: NA: Not active; for IC50: Homo sapiens. How it is done:
as §1, §2

The test system of series [3] is MCF 12A (normal epithelial breast cell line). As to the kind of experiment: MTT assay on normal cells, MCF 12A. The class given is cell-based, human. Particulars: normal epithelial breast cell MCF 12A; for IC50: Homo sapiens. How it is done:
as §1
The presence of non-halogen substituent along with electron donating substituent seriously jeopardise the anticancer potential. […] To determine the selectivity of these molecules between normal and cancerous cells, the designed compounds were also tested against MCF 12A, a normal epithelial breast cell.
as §2

The target of another series is T1, EGFR-TK (Homo sapiens, UniProt P00533).
T1 construct: 0.2 mg/mL Poly (Glu, Tyr) substrate, 10 mM ATP and EGFR
In words: EGFR tyrosine kinase inhibitory activity (Kinase-Glo Plus luminescence). The class given is biochemical. Conditions: for inhibition at 10 µM: read-out: Percent of Inhibition, EGFR tyrosine kinase. Here is the method:
Kinase activity was determined using Kinase-Glo Plus luminescence kinase assay kit, by quantitating the amount of ATP remaining in the solution of kinase reaction. The luminescent signal is correlated with the residual amount present and it was inversely related with kinase activity. The tested compounds were diluted to 100 mM in 10% DMSO, then […] of the dilution was added to a 50 mL reaction. All of the enzymatic reactions were performed at 30 °C for 40 min, 50 mL of reaction mixture contains 10 mM MgCl2, 40 mM Tris, pH 7.4, 0.1 mg/mL BSA, 0.2 mg/mL Poly (Glu, Tyr) substrate, 10 mM ATP and EGFR. Incubate the plate for 5 min at r.t. then add 50 mL of Kinase-GloPlus Luminescence kinase assay to each reaction. ADP-Glo assay kit is the protein kinase assays used to determine IC50 values in which ADP generation was measured as it leads to an increase in luminescence signal. The reaction mixture was incubated in a 96-well plate at 30 °C for 30 min, after the incubation period add 25 mL of ADP-Glo reagent to terminate the assay. Shake the 96-well plate for 30 min at ambient temperature then incubate it, then add 50 mL of kinase detection reagent. Read the 96-well plate using the ADP-Glo Luminescence reader. All the assay components were added to the blank control except the substrate. By removing the blank control value you can obtain the corrected activity for each protein kinase target.
For orientation: In Kinase-Glo more light means more ATP remaining.

Bounds are passed on as bounds.

T1 sequence (P00533 25-1210): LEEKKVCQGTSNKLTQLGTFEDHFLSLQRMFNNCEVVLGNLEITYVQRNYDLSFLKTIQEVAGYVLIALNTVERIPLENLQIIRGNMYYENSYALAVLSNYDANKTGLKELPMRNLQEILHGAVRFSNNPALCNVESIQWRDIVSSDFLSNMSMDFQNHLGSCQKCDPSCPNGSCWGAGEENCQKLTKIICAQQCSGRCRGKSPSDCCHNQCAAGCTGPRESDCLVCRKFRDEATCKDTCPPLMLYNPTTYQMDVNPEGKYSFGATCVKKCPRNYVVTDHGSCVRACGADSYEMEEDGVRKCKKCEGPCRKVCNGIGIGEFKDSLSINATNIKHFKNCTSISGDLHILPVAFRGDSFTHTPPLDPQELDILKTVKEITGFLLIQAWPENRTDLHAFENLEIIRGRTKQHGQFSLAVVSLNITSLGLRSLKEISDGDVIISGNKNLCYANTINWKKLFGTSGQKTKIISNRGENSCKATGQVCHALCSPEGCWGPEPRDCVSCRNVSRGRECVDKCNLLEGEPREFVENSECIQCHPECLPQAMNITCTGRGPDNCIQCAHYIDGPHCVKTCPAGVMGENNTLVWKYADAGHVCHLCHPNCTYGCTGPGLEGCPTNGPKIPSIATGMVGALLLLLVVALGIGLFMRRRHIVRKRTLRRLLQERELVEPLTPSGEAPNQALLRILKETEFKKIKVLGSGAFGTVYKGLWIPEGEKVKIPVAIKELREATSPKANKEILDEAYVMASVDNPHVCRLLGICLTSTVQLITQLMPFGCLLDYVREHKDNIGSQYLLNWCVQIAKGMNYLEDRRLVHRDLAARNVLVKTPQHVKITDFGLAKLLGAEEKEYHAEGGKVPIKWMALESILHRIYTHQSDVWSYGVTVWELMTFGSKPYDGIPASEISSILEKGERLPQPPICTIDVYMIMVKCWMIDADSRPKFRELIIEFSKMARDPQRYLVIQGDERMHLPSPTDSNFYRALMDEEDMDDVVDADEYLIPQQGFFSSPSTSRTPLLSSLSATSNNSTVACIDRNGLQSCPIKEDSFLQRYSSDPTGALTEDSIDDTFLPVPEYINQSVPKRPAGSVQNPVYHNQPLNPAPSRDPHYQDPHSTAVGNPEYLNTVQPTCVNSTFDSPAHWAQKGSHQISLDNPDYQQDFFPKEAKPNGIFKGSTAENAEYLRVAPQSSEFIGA

Take `CC(C)Nc1nc(N/N=C/c2cc(Br)c(O)c(Br)c2O)nc(Nc2ccc(F)cc2)n1` [1a]: the IC50 with WT EGFR is 25.9 µM; in the series with mutant EGFRT790M/L858R, 6.5 µM; in the series on A549, 7.7 ± 1.3 µM; with A431, 8 ± 1.6 µM; with NCIH1975, 10.5 ± 0.9 µM.

In the case of `CCOC(=O)C1=C(C)N(c2nc(Nc3ccccc3Cl)nc(Nc3ccccc3Cl)n2)C(=S)NC1c1ccc(OC)cc1` (stereo not shown) [7f, Ethyl 1-(4,6-bis((2-chlorophenyl)amino)-1,3,5-triazin-2-yl)-4-(4-methoxyphenyl)-6-methyl-2-thioxo-1,2,3,4-tetrahydropyrimidine-5-carboxylate], the melting point fell in the range of 91 to 93 °C. Also, in the series with HeLa (cervical cancer), the IC50 was determined as 55.4 ± 0.12 µM. The compound further returned an IC50 in the series on MCF-7 (breast cancer) of 64 ± 0.38 µM. The midpoint of inhibition in series [1], the IC50, lay at 47 ± 0.54 µM. In addition, half-maximal inhibition in series [2] (IC50) was put at 46.5 ± 0.36 µM. The IC50 in series [3] was found to be 82.14 ± 0.21 µM. Besides, the inhibition at 10 µM at EGFR-TK (at 10 µM) amounted to 81.4%.

As to `CCOC(=O)C1=C(C)N(c2nc(Nc3ccccc3)nc(Nc3ccccc3)n2)C(=S)NC1c1ccccc1` (stereo not shown) [7a, Ethyl 1-(4,6-bis(phenylamino)-1,3,5-triazin-2-yl)-6-methyl-4-phenyl-2-thioxo-1,2,3,4-tetrahydropyrimidine-5-carboxylate], the melting point is 225 to 227 °C. The compound also yielded an IC50 in the series on HeLa (cervical cancer) of 96.6 ± 0.45 µM. In the series on MCF-7 (breast cancer), this compound displayed an IC50 of 87.4 ± 0.76 µM. Moreover, the IC50 in [1] was determined as 83.7 ± 0.27 µM. Moreover, the “IC50 HepG2” value in series [2] is “inactive”. Besides, the “IC50 MCF 12A” value in series [3] is given as “non-toxic”. The inhibition at 10 µM on EGFR-TK (at 10 µM) turned out to be 52.4%.

`CCOC(=O)C1=C(C)N(c2nc(Nc3cccc(Br)c3)nc(Nc3cccc(Br)c3)n2)C(=S)NC1c1ccccc1O` (stereo not shown) [7e, Ethyl 1-(4,6-bis((3-bromophenyl)amino)-1,3,5-triazin-2-yl)-4-(2-hydroxyphenyl)-6-methyl-2-thioxo-1,2,3,4-tetrahydropyrimidine-5-carboxylate]: the melting point fell in the range of 245 to 247 °C. Besides, the concentration for half-maximal inhibition (IC50) with HeLa (cervical cancer) came out at 63.9 ± 0.25 µM. Moreover, the IC50 with MCF-7 (breast cancer) turned out to be 67.8 ± 0.61 µM. Further, the IC50 in series [1] stood at 57.4 ± 0.52 µM. The same compound displayed a half-maximal inhibitory concentration (IC50) in [2] of 65.6 ± 0.45 µM. In [3], this compound registered an IC50 of 89.45 ± 0.45 µM. Also, on EGFR-TK (at 10 µM), the inhibition at 10 µM turned out to be 78.5%.

On to `CNc1nc(N/N=C/c2ccc(O)cc2)nc(Nc2ccccc2)n1` [1f], for which the IC50 with WT EGFR is above 100 µM; in the series on mutant EGFRT790M/L858R, 30.7 µM.

`CCOC(=O)C1=C(C)N(c2nc(Nc3ccc([N+](=O)[O-])cc3)nc(Nc3ccc([N+](=O)[O-])cc3)n2)C(=S)NC1c1ccc(Cl)cc1` (stereo not shown) [7h, Ethyl 1-(4,6-bis((4-nitrophenyl)amino)-1,3,5-triazin-2-yl)-4-(4-chlorophenyl)-6-methyl-2-thioxo-1,2,3,4-tetrahydropyrimidine-5-carboxylate]: the melting point was 146 to 147 °C. This compound had an IC50 in the series with HeLa (cervical cancer) of 73.4 ± 0.65 µM. For the same compound, half-maximal inhibition with MCF-7 (breast cancer) (IC50) required 71.5 ± 0.46 µM. In series [1], the half-maximal inhibitory concentration (IC50) worked out at 61.4 ± 0.36 µM. Besides, the IC50 in series [2] was 69.6 ± 0.38 µM. In addition, the “IC50 MCF 12A” value in [3] is recorded as “non-toxic”. On EGFR-TK (EGFR-TK percent inhibition as repeated in docking Table 5), the “%i” value turned out to be 69.1%. Further, on EGFR-TK (at 10 µM), the “Percent of Inhibition, EGFR tyrosine kinase” value amounted to 69.1% and the inhibition at 10 µM is around 69%.
